# Assays:
# [1] = test system: A. baumannii; assay: microbe, parasite or virus in culture
# Summary of the method: (§1)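 Broth microdilution following CLSI M07 and M100. Inocula were diluted from a 0.5 McFarland suspension in CAMHB. MIC is the lowest compound concentration inhibiting visible growth, or beyond which OD600 ceased to decrease.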
# [2] = test system: E. coli ATCC 25922; assay: microbe, parasite or virus in culture
# Summary of the method: as §1
smiles,measurement,setting,value
CN1C(=O)[C@H](CCCCN)NC(=O)[C@H](CCCN)NCc2cccnc2Sc2c(Cl)ccc(Cl)c2CNC(=O)[C@@H]1Cc1c[nH]c2ccccc12 [RO7075573],MIC 80%,"[1]; ROB08708, Study LGC295147",0.12 µg/mL
same,MIC 100%,"[1]; ROB08708, Study LGC295147",64 µg/mL
same,MIC 80%,"[1]; ROB08708, Study LGC296813",0.12 µg/mL
same,MIC 100%,"[1]; ROB08708, Study LGC296813",>64 µg/mL
same,MIC 80%,"[1]; ROB08708, Study LGC299544",0.12 µg/mL
same,MIC 100%,"[1]; ROB08708, Study LGC299544",64 µg/mL
same,MIC 80%,"[1]; ROB08708, Study LGC301026",0.12 µg/mL
same,MIC 100%,"[1]; ROB08708, Study LGC301026",>64 µg/mL
same,MIC 80%,"[1]; ROB08708, Study LGC308175",≤0.06 µg/mL
same,MIC 100%,"[1]; ROB08708, Study LGC308175",64 µg/mL
same,MIC 80%,"[1]; ROB08708, Study ROC010",0.12 µg/mL
same,MIC 100%,"[1]; ROB08708, Study ROC010",16 µg/mL
same,MIC 80%,"[1]; ROB08708, Study ROC012",0.12 µg/mL
same,MIC 100%,"[1]; ROB08708, Study ROC012",64 µg/mL
same,MIC 80%,"[1]; ROB08709, Study LGC281440",0.12 µg/mL
same,MIC 100%,"[1]; ROB08709, Study LGC281440",16 µg/mL
same,MIC 80%,"[1]; ROB08709, Study LGC282160",0.12 µg/mL
same,MIC 100%,"[1]; ROB08709, Study LGC282160",>64 µg/mL
same,MIC 80%,"[1]; ROB08709, Study LGC284879",0.25 µg/mL
same,MIC 100%,"[1]; ROB08709, Study LGC284879",>64 µg/mL
same,MIC 80%,"[1]; ROB08709, Study LGC285582",0.12 µg/mL
same,MIC 100%,"[1]; ROB08709, Study LGC285582",64 µg/mL
same,MIC 80%,"[1]; ROB08709, Study LGC286210",0.12 µg/mL
same,MIC 100%,"[1]; ROB08709, Study LGC286210",64 µg/mL
same,MIC 80%,"[1]; ROB08709, Study LGC293598",0.12 µg/mL
same,MIC 100%,"[1]; ROB08709, Study LGC293598",>64 µg/mL
same,MIC 80%,"[1]; ROB08709, Study LGC294355",0.12 µg/mL
same,MIC 100%,"[1]; ROB08709, Study LGC294355",>64 µg/mL
same,MIC 80%,"[1]; ROB08709, Study LGC295147",0.12 µg/mL
same,MIC 100%,"[1]; ROB08709, Study LGC295147",64 µg/mL
same,MIC 80%,"[1]; ROB08709, Study LGC296813",0.12 µg/mL
same,MIC 100%,"[1]; ROB08709, Study LGC296813",64 µg/mL
same,MIC 80%,"[1]; ROB08709, Study LGC299544",0.25 µg/mL
same,MIC 100%,"[1]; ROB08709, Study LGC299544",64 µg/mL
same,MIC 80%,"[1]; ROB08709, Study LGC301026",0.12 µg/mL
same,MIC 100%,"[1]; ROB08709, Study LGC301026",64 µg/mL
same,MIC 80%,"[1]; ROB08709, Study LGC308175",0.12 µg/mL
same,MIC 100%,"[1]; ROB08709, Study LGC308175",>64 µg/mL
same,MIC 80%,"[1]; ROB08709, Study ROC010",0.25 µg/mL
same,MIC 100%,"[1]; ROB08709, Study ROC010",64 µg/mL
same,MIC 80%,"[1]; ROB08709, Study ROC012",0.25 µg/mL
same,MIC 100%,"[1]; ROB08709, Study ROC012",64 µg/mL
same,MIC 80%,"[1]; ROB08710, Study LGC281440",0.25 µg/mL
same,MIC 100%,"[1]; ROB08710, Study LGC281440",8 µg/mL
same,MIC 80%,"[1]; ROB08710, Study LGC282160",0.25 µg/mL
same,MIC 100%,"[1]; ROB08710, Study LGC282160",64 µg/mL
same,MIC 80%,"[1]; ROB08710, Study LGC284879",0.25 µg/mL
same,MIC 100%,"[1]; ROB08710, Study LGC284879",>64 µg/mL
same,MIC 80%,"[1]; ROB08710, Study LGC285582",0.25 µg/mL
same,MIC 100%,"[1]; ROB08710, Study LGC285582",64 µg/mL
same,MIC 80%,"[1]; ROB08710, Study LGC286210",0.12 µg/mL
same,MIC 100%,"[1]; ROB08710, Study LGC286210",64 µg/mL
same,MIC 80%,"[1]; ROB08710, Study LGC293598",0.12 µg/mL
same,MIC 100%,"[1]; ROB08710, Study LGC293598",>64 µg/mL
same,MIC 80%,"[1]; ROB08710, Study LGC294355",0.5 µg/mL
same,MIC 100%,"[1]; ROB08710, Study LGC294355",>64 µg/mL
same,MIC 80%,"[1]; ROB08710, Study LGC295147",0.12 µg/mL
same,MIC 100%,"[1]; ROB08710, Study LGC295147",32 µg/mL
same,MIC 80%,"[1]; ROB08710, Study LGC296813",0.12 µg/mL
same,MIC 100%,"[1]; ROB08710, Study LGC296813",64 µg/mL
same,MIC 80%,"[1]; ROB08710, Study LGC299544",0.5 µg/mL
same,MIC 100%,"[1]; ROB08710, Study LGC299544",64 µg/mL
same,MIC 80%,"[1]; ROB08710, Study LGC301026",0.12 µg/mL
same,MIC 100%,"[1]; ROB08710, Study LGC301026",64 µg/mL
same,MIC 80%,"[1]; ROB08710, Study LGC308175",0.12 µg/mL
same,MIC 100%,"[1]; ROB08710, Study LGC308175",32 µg/mL
same,MIC 80%,"[1]; ROB08710, Study ROC010",0.25 µg/mL
same,MIC 100%,"[1]; ROB08710, Study ROC010",0.5 µg/mL
same,MIC 80%,"[1]; ROB08710, Study ROC012",0.25 µg/mL
same,MIC 100%,"[1]; ROB08710, Study ROC012",32 µg/mL
same,Fold more potent than RO7036668,[1]; panel of A. baumannii,4- to 64 fold
same,MIC,"[2]; CAMHB, mode of at least three replicates (RO7036668 one replicate)",>64 µg/mL
same,MIC,"[2]; Escherichia coli, ATCC25922",> 64 µg/mL
same,MIC 100%,[2]; Study LGC281440,>64 µg/mL
same,MIC 100%,[2]; Study LGC282160,>64 µg/mL
same,MIC 100%,[2]; Study LGC284879,>64 µg/mL
same,MIC 100%,[2]; Study LGC285582,>64 µg/mL
same,MIC 100%,[2]; Study LGC286210,>64 µg/mL
same,MIC 100%,[2]; Study LGC293598,>64 µg/mL
same,MIC 100%,[2]; Study LGC294355,>64 µg/mL
same,MIC 100%,[2]; Study LGC295147,>64 µg/mL
same,MIC 100%,[2]; Study LGC296813,>64 µg/mL
same,MIC 100%,[2]; Study LGC299544,>64 µg/mL
same,MIC 100%,[2]; Study LGC301026,>64 µg/mL
same,MIC 100%,[2]; Study LGC308175,>64 µg/mL
same,MIC 100%,[2]; Study ROC010,>64 µg/mL
same,MIC 100%,[2]; Study ROC012,>64 µg/mL

# — publication PMC10794144, “A novel antibiotic class targeting the lipopolysaccharide transporter” (Nature, 2024)
